# Experimental data as given in patent US20230404921A1, “LYOTROPIC LIQUID CRYSTALLINE PHASE PARTICLE” (priority 2020, published 2023).
# Read-outs that look alike come from different tables or passages of the source.
# Columns and labels:
# [1] = system: Pseudomonas aeruginosa (ATCC 2835); test: MTS based cell viability assay; settings: for inhibition at 0.5 µg/mL: ATCC2835, drug conc 0.5 ug/ml; for inhibition at 2.5 µg/mL: ATCC2835, drug conc 2.5 ug/ml; for inhibition at 5 µg/mL: ATCC2835, drug conc 5 ug/ml; for inhibition at 7.5 µg/mL: ATCC2835, drug conc 7.5 ug/ml; for inhibition at 10 µg/mL: ATCC2835, drug conc 10 ug/ml; for inhibition at 15 µg/mL: ATCC2835, drug conc 15 ug/ml; for inhibition at 20 µg/mL: ATCC2835, drug conc 20 ug/ml; for inhibition at 25 µg/mL: ATCC2835, drug conc 25 ug/ml
# [2] = system: fluconazole-resistant Cryptococcus neoformans; test: Antimicrobial assay MIC-50 / MIC-90, 96 well plate; type: cell-based; settings: for MIC50: Cryptococcus neoformans
# [3] = system: Candida albicans (ATCC10251); test: Fungal cell viability assay (MTS)
# [4] = Pseudomonas aeruginosa, read-out: Percentage inhibition
Compound,"inhibition at 0.5 µg/mL [1, 4] [%]","inhibition at 2.5 µg/mL [1, 4] [%]","inhibition at 5 µg/mL [1, 4] [%]","inhibition at 7.5 µg/mL [1, 4] [%]","inhibition at 10 µg/mL [1, 4] [%]","inhibition at 15 µg/mL [1, 4] [%]","inhibition at 20 µg/mL [1, 4] [%]","inhibition at 25 µg/mL [1, 4] [%]",further results
CC1(C)S[C@@H]2[C@H](NC(=O)[C@H](N)c3ccccc3)C(=O)N2[C@H]1C(=O)O [Ampicillin],39,39.8,41.9,42.8,46.4,62.2,69.9,72.3,Percentage inhibition ([1]; drug conc 0.5 ug/ml): 38.64%
"OC(Cn1cncn1)(Cn1cncn1)c1ccc(F)cc1F [Fluconazole only, Fluconazole]",,,,,,,,,"MIC50 ([2]; pH 5.17): 12.4 µg/mL; MIC50 ([2]; pH 7.08, read-out: MIC-50): 12.2 µg/mL; MIC-90 ([2]; pH 5.17): fails to reach MIC-90"
"C[C@@H]1[C@H](O)[C@@H](C)/C=C/C=C/C=C/C=C/C=C/C=C/C=C/[C@H](O[C@@H]2O[C@H](C)[C@@H](O)[C@H](N)[C@@H]2O)C[C@@H]2O[C@](O)(C[C@@H](O)C[C@@H](O)[C@H](O)CC[C@@H](O)C[C@@H](O)CC(=O)O[C@H]1C)C[C@H](O)[C@H]2C(=O)O [amphotericin, Amphotericin B]",,,,,,,,,concentration required to achieve 98% inhibition [3]: 10 µg/mL
"CO[C@@H]1[C@@H](OC(N)=O)[C@@H](O)[C@H](Oc2ccc3c(O)c(NC(=O)c4ccc(O)c(CC=C(C)C)c4)c(=O)oc3c2C)OC1(C)C [novobiocin, Novobiocin]",,,,,,,,,"inhibition at 80 µg/mL ([1]; Pseudomonas aeruginosa, ATCC2835, drug conc 80 ug/ml, read-out: Percentage inhibition): 13%"
"CN[C@H](CC(C)C)C(=O)N[C@H]1C(=O)N[C@@H](CC(N)=O)C(=O)N[C@H]2C(=O)N[C@H]3C(=O)N[C@H](C(=O)N[C@H](C(=O)O)c4cc(O)cc(O)c4-c4cc3ccc4O)[C@H](O)c3ccc(c(Cl)c3)Oc3cc2cc(c3O[C@@H]2O[C@H](CO)[C@@H](O)[C@H](O)[C@H]2O[C@H]2C[C@](C)(N)[C@H](O)[C@H](C)O2)Oc2ccc(cc2Cl)[C@H]1O [vancomycin, Vancomycin]",1.24,9.83,11.6,14.2,16.6,17.6,18,18.4,
